Reference: US20240247015A1, “PHOSPHORUS DERIVATIVES AS NOVEL SOS1 INHIBITORS” (BAYER AKTIENGESELLSCHAFT, priority 2021, published 2024)

What follows are molecules tested against interaction of human SOS1 (SOS1) with human K-RasG12C (Homo sapiens (Human), UniProt Q07889) (assay: Biochemical assay: hK-RasG12C interaction assay with hSOS1 (HTRF)). Details: GST-hK-RasG12C with His-hSOS1, 60 min incubation at 20° C., mean, read-out: K-RasG12C - SOS interaction assay IC50 (mean).
interaction of human SOS1 (SOS1) with human K-RasG12C, sequence (Q07889 564-1049 limits assumed): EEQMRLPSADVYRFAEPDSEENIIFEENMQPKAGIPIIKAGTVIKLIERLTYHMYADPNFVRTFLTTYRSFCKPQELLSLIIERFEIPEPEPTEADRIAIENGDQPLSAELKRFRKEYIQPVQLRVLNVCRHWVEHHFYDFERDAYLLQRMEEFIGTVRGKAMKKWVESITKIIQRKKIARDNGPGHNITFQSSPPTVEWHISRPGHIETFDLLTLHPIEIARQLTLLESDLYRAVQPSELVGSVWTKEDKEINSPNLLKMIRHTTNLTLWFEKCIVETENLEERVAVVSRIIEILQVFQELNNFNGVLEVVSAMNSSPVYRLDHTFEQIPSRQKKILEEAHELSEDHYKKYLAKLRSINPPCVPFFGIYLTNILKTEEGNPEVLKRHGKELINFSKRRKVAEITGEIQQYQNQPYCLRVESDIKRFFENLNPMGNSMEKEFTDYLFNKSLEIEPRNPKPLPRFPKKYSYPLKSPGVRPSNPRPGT
Assay type: binding
Experimental: Biochemical Assay: hK-RasG12C Interaction Assay with hSOS1 This assay quantifies the equilibrium interaction of human SOS1 (SOS1) with human K-Ras^G12^C (K-RasG12C). Detection of the interaction is achieved by measuring homogenous time-resolved fluorescence resonance energy transfer (HTRF) from antiGST-Europium (FRET donor) bound to GST-K-RasG12C to anti-6His-XL665 bound to His-tagged hSOS1 (FRET-acceptor). The assay buffer containes 5 mM HEPES pH 7.4 (Applichem), 150 mM NaCl (Sigma), […] (Promega), 1 mM DTT (Thermofisher), 0.05% BSA Fraction V, pH 7.0, (ICN Biomedicals), 0.0025% (v/v) Igepal (Sigma) and 100 mM KF (FLUKA). The expression and purification of N-terminally GST-tagged human K-RasG12C (termed GST-hK-RasG12C) and N-terminally His-tagged human SOS1 (termed His10-hSOS1) is described in WO 2019/201848, page 220 line 12-34 and page 222, line 13-25 (expression) and page 222, line 26 to page 223, line 17 (purification). Concentrations of protein batches used are optimized to be within the linear range of the HTRF signal. A Ras working solution is prepared in assay buffer containing typically 10 nM GST-hK-RasG12C and 2 nM antiGST-Eu(K) (Cisbio, France). A SOS1 working solution is prepared in assay buffer containing typically 20 nM His-hSOS1 and 10 nM anti-6His-XL665 (Cisbio, France). An inhibitor control solution is prepared in assay buffer containing nM anti-6His-XL665 without SOS1. Fifty nl of a 100-fold concentrated solution of the test compound in DMSO are transferred into a black microtiter test plate (384 or 1536, Greiner Bio-One, Germany). For this, either a Hummingbird liquid handler (Digilab, MA, USA) or an Echo acoustic system (Labcyte, CA, USA) is used. All steps of the assay are performed at 20° C. A volume of 2.5 μl of the Ras working solution is added to all wells of the test plate using a Multidrop dispenser (Thermo Labsystems). After 2 min preincubation, 2.5 μl of the SOS1 working solution are added to all wells except for those wells at the side of the test plate that are subsequently filled with 2.5 μl of the inhibitor control solution. After 60 min incubation the fluorescence is measured with a Pherastar (BMG, Germany) using the HTRF module (excitation 337 nm, emission 1: 620 nm, emission 2: 665 nm). The ratiometric data (emission 2 divided by emission 1) are normalized using the controls (DMSO=0% inhibition, inhibition control wells with inhibitor control solution=100% inhibition). Compounds are tested in duplicates at up to 11 concentrations (for 20 μM, 5,7 μM, 1,6 μM, 0.47 μM, 0.13 μM, 38 nM, 11 nM, 3.1 nM, 0.89 nM, 0.25 nM and 0.073 nM). IC50 values are calculated by 4-Parameter fitting using a commercial software package (Genedata Screener, Switzerland).
Work on `CCP(C)(=O)c1cc2c(N[C@H](C)c3cccc(C(F)F)c3F)nc(C)nc2cn1` (stereo partly drawn) [Example 117, N-{(1R)-1-[3-(difluoromethyl)-2-fluorophenyl]ethyl}-6-[ethyl(methyl)phosphoryl]-2-methylpyrido[3,4-d]pyrimidin-4-amine] yielded an IC50 of 56.9 nM.
Molecule `COc1nc2nc(C)nc(N[C@H](C)c3cccc(C(F)(F)F)c3C)c2cc1P1(=O)CCN(C(C)=O)CC1` [Example 144, 1-acetyl-4-[7-methoxy-2-methyl-4-({(1R)-1-[2-methyl-3-(trifluoromethyl)phenyl]ethyl}amino)pyrido[2,3-d]pyrimidin-6-yl]-1,4lambda^5-azaphosphinan-4-one] has an IC50 of 1.97 nM.
In the case of `Cc1nc(N[C@H](C)c2cccc(C(F)F)c2F)c2cc(P(C)(C)=O)ccc2n1` [Example 128, N-{(1R)-1-[3-(difluoromethyl)-2-fluorophenyl]ethyl}-6-(dimethylphosphoryl)-2-methylquinazolin-4-amine], the IC50 is reported as 20.9 nM.
For `Cc1nc(N[C@H](C)c2cccc(C(F)(F)F)c2C)c2cc(P3(=O)CCN(C(=O)C4COC4)CC3)ncc2n1` [Example 164, 4-[2-methyl-4-{{(1R)-1-[2-methyl-3-(trifluoromethyl)phenyl]ethyl}amino)pyrido[3,4-d]pyrimidin-6-yl]-1-(oxetane-3-carbonyl)-1,4lambda^5-azaphosphinan-4-one], the IC50 was 7.01 nM.
`Cc1nc(N[C@H](C)c2cccc(C(F)(F)F)c2C)c2cc(P3(=O)CCN(Cc4ccccc4)CC3)ccc2n1` [Example 105, 1-benzyl-4-[2-methyl-4-({(1R)-1-[2-methyl-3-(trifluoromethyl)phenyl]ethyl}amino)quinazolin-6-yl]-1,4lambda^5-azaphosphinan-4-one] showed an IC50 of 117 nM.
In the case of `Cc1nc(N[C@H](C)c2cccc(C(F)(F)F)c2C)c2cc(P(=O)(C(C)C)C(C)C)c(C)nc2n1` [Example 102, 6-[di(propan-2-yl)phosphoryl]-2,7-dimethyl-N-{(1R)-1-[2-methyl-3-(trifluoromethyl)phenyl]ethyl}pyrido[2,3-d]pyrimidin-4-amine], the IC50 is reported as 80.2 nM.
`CCP(=O)(CC)c1cc2c(N[C@H](C)c3cccc(C(F)F)c3F)nc(C)nc2cn1` [Example 92, 6-(diethylphosphoryl)-N-{(1R)-1-[3-(difluoromethyl)-2-fluorophenyl]ethyl}-2-methylpyrido[3,4-d]pyrimidin-4-amine] was tested, and the IC50 was 77.2 nM.
Molecule `Cc1nc(N[C@H](C)c2cccc(C(F)F)c2F)c2cc(P3(=O)CCCC3)ccc2n1` [Example 127, 1-[4-{{(1R)-1-[3-(difluoromethyl)-2-fluorophenyl]ethyl}amino)-2-methylquinazolin-6-yl]-1lambda^5-phospholan-1-one] has an IC50 of 23.4 nM.
`Cc1nc(N[C@H](C)c2cccc(C(F)(F)CN(C)S(C)(=O)=O)c2F)c2cc(P3(=O)CCN(C(=O)C4CC4)CC3)ncc2n1` [Example 181, N-(2-{3-[(1R)-1-({6-[1-(cyclopropanecarbonyl)-4-oxo-1,4lambda^5-azaphosphinan-4-yl]-2-methylpyrido[3,4-d]pyrimidin-4-yl}amino)ethyl]-2-fluorophenyl}-2,2-difluoroethyl)-N-methylmethanesulfonamide] was tested, and the IC50 was 2.95 nM.
`Cc1nc(N[C@H](C)c2cccc(C(F)(F)C(N)=O)c2F)c2cc(P(C)(C)=O)ncc2n1` [Example 48, 2-{3-[(1R)-1-{[6-(dimethylphosphoryl)-2-methylpyrido[3,4-d]pyrimidin-4-yl]amino}ethyl]-2-fluorophenyl}-2,2-difluoroacetamide] was tested, and the IC50 was 29.3 nM.
Molecule `Cc1nc(N[C@H](C)c2cccc(C(F)F)c2F)c2cc(P(C)(=O)C(C)C)ncc2n1` (single isomer, unassigned) [Example 116] has an IC50 of 57.6 nM.
With `CC(=O)N1CCP(=O)(c2cc3c(N[C@H](C)c4cc(C)cc(C(F)(F)F)c4C)nc(C)nc3cn2)CC1` [Example 58, 1-acetyl-4-[4-{{(1R)-1-[2,5-dimethyl-3-(trifluoromethyl)phenyl]ethyl}amino)-2-methylpyrido[3,4-d]pyrimidin-6-yl]-1,4lambda^5-azaphosphinan-4-one] the IC50 was 6.33 nM.
Molecule `Cc1nc(N[C@H](C)c2cccc(C(F)(F)F)c2Cl)c2cc(P3(=O)CCN(C(=O)C(F)F)CC3)ncc2n1` [Example 204] has an IC50 of 5.96 nM.
Molecule `Cc1nc(N[C@H](C)c2cccc(C(F)(F)CO)c2F)c2cc(P(C)(C)=O)ncc2n1` [Example 62, 2-{3-[(1R)-1-{[6-(dimethylphosphoryl)-2-methylpyrido[3,4-d]pyrimidin-4-yl]amino}ethyl]-2-fluorophenyl}-2,2-difluoroethan-1-ol] has an IC50 of 13.5 nM.
In the case of `CC(=S)N1CCP(=O)(c2cc3c(N[C@H](C)c4cccc(C(F)(F)F)c4C)nc(C)nc3cn2)CC1` [Example 32, 1-ethanethioyl-4-[2-methyl-4-({(1R)-1-[2-methyl-3-(trifluoromethyl)phenyl]ethyl}amino)pyrido[3,4-d]pyrimidin-6-yl]-1,4lambda^5-azaphosphinan-4-one], the IC50 is reported as 12.2 nM.
Molecule `CNC(=O)C(F)(F)c1cccc([C@@H](C)Nc2nc(C)nc3cnc(P4(=O)CCN(C(C)=O)CC4)cc23)c1F` [Example 47, 2-{3-[(1R)-1-{[6-(1-acetyl-4-oxo-1,4lambda^5-azaphosphinan-4-yl)-2-methylpyrido[3,4-d]pyrimidin-4-yl]amino}ethyl]-2-fluorophenyl}-2,2-difluoro-N-methylacetamide] has an IC50 of 13.8 nM.
Work on `Cc1nc(N[C@H](C)c2cccc(C(F)(F)F)c2C)c2cc(P3(=O)CCN(C(N)=O)CC3)ncc2n1` [Example 186] yielded an IC50 of 4.71 nM.
In the case of `Cc1nc(N[C@H](C)c2cccc(Br)c2F)c2cc(P(C)(C)=O)ncc2n1` [Example 56, N-[(1R)-1-(3-bromo-2-fluorophenyl)ethyl]-6-(dimethylphosphoryl)-2-methylpyrido[3,4-d]pyrimidin-4-amine], the IC50 is reported as 74.1 nM.
In the case of `[2H]C([2H])(O)C(F)(F)c1cccc([C@@H](C)Nc2nc(C)nc3cnc(P4(=O)CCCC4)cc23)c1F` [Example 61, 1-(4-{[(1R)-1-{3-[1,1-difluoro-2-hydroxy(^2H2)ethyl]-2-fluorophenyl}ethyl]amino}-2-methylpyrido[3,4-d]pyrimidin-6-yl)-1lambda^5-phospholan-1-one], the IC50 is reported as 9.82 nM.
With `Cc1nc(N[C@H](C)c2cccc(C(F)F)c2F)c2cc(P3(=O)CCN(C(=O)C4(O)CC4)CC3)ncc2n1` [Example 156, 4-[4-{{(1R)-1-[3-(difluoromethyl)-2-fluorophenyl]ethyl}amino)-2-methylpyrido[3,4-d]pyrimidin-6-yl]-1-(1-hydroxycyclopropane-1-carbonyl)-1,4lambda^5-azaphosphinan-4-one] the IC50 was 11.4 nM.
With `Cc1nc(N[C@H](C)c2cccc(C(F)F)c2F)c2cc(P3(=O)CCN(C(=O)[C@H](C)O)CC3)ncc2n1` [Example 157, 4-[4-{{(1R)-1-[3-(difluoromethyl)-2-fluorophenyl]ethyl}amino)-2-methylpyrido[3,4-d]pyrimidin-6-yl]-1-[(2S)-2-hydroxypropanoyl]-1,4lambda^5-azaphosphinan-4-one] the IC50 was 5.04 nM.
`CC(=O)N1CCP(=O)(c2cc3c(N[C@H](C)c4cccc(C(F)(F)C(N)=O)c4F)nc(C)nc3cn2)CC1` [Example 46, 2-{3-[(1R)-1-{[6-(1-acetyl-4-oxo-1,4lambda^5-azaphosphinan-4-yl)-2-methylpyrido[3,4-d]pyrimidin-4-yl]amino}ethyl]-2-fluorophenyl}-2,2-difluoroacetamide] gave an IC50 of 6.1 nM.
